Reference: patent US20250339374A1, “BONDED MICROPARTICULATES PREPARATION AND APPLICATIONS THEREOF” (Venkor Corporation, priority 2022, published 2025)
Read-outs that look alike come from different tables or passages of the source.

How the values were obtained:
[1] = in water; description of the solid particulate material in the composition table; cited from earlier work
[2] = Sieve analysis (particle size) of solid particulate material and BMPX, USP <786>; type: physicochemical; conditions: solid particulate material; for Particle size: description in composition table
From the text: For example, to prepare tablets, certain excipients such as disintegrants, lubricants, glidants etc. may be added to the bonded microparticulates to further facilitate forming the tablet.

[3] = Tapped density, USP <616>; type: physicochemical; conditions: solid particulate material, description in composition table; equals tapped density of Active
Description: In addition to screen analysis, the tap density and the bulk density of the bonded microparticulates and solid particulate material were determined.

[4] = Solubility in water of solid particulate material (descriptive); type: physicochemical
Description: In some embodiments, the solid particulate starting material is hydrophilic or hydrophobic or lipophilic in character. Solubility of drugs is measured by the amount of solvent needed to dissolve one part of the drug at a specific temperature. For example, a drug that is very soluble needs less than one part of solvent to dissolve one part of the drug. A drug that is considered freely soluble needs 1 to 10 parts of solvent, one that is soluble needs 10 to 30 parts of solvent, one that sparingly soluble need 30 to 100 parts of solvent, one that is slightly soluble needs 100-1,000 parts and one that is practically insoluble or insoluble needs more than 10,000 parts, per part of solute.

[5] = description in composition table

**Q.** For `CCOC(=O)C1=C(COCCN)NC(C)=C(C(=O)OC)C1c1ccccc1Cl` (centres unmarked) [Amlodipine Besylate], which Solubility [1] is on record?
**A.** Solubility- insoluble in water

**Q.** Which results are given for `O=C([O-])[O-].[Ca+2]` [Calcium Carbonate]?
**A.** retain on 60mesh ([2]; 60 mesh): ≥ 90% retain on 60mesh; Density [3]: Density -1.2(High Density)

**Q.** For `COc1ccccc1OCC(O)CO` (centres unmarked) [Guaifenesin], which Solubility [1] is on record?
**A.** Solubility- soluble in water

**Q.** Which Solubility [1] does the source give for `CC(C)Cc1ccc(C(C)C(=O)O)cc1` (centres unmarked) [Ibuprofen] here?
**A.** Solubility- in soluble in water

**Q.** With `OC[C@@H](O)[C@@H](O)[C@H](O)[C@H](O)CO` [Mannitol] as the compound, how does the Solubility ([4]; in water) read?
**A.** Solubility- insoluble in water

**Q.** For `O=C(O)c1cccnc1` [Niacin], which Solubility [1] is on record?
**A.** Solubility- soluble in water

**Q.** For `O=C([O-])O.[Na+]` [Sodium Bicarbonate, reference compound], which “retain on 200#” value ([2]; 200 mesh) is on record?
**A.** 70.8%

**Q.** And the Particle size [2]?
**A.** 74 microns

**Q.** And the Density [3]?
**A.** Density -1.19 (High Density)-

**Q.** Which Solubility ([4]; in water) does the source give for `OC[C@@H](O)[C@H](O)[C@@H](O)CO` [Xylitol-90] here?
**A.** Solubility- soluble in water

**Q.** For `OC[C@@H](O)[C@H](O)[C@@H](O)CO` [Xylitol-300], which Solubility [4, 5] is on record?
**A.** Solubility- soluble in water

**Q.** And the Particle size [2]?
**A.** Particle size- 149 microns

**Q.** What about the Density [3] of the same compound?
**A.** Density -0.83 (High Density)

**Q.** For Fructo-Oligosaccharide, which Solubility [4, 5] is on record?
**A.** Solubility- soluble in water

**Q.** What about the Particle size [2] of the same compound?
**A.** Particle size- 149 microns

**Q.** What about the Density [3] of the same compound?
**A.** Density -0.75 (High Density)

**Q.** With Sugar powder as the compound, how does the Solubility ([4]; in water) read?
**A.** Solubility- soluble in water

**Q.** With Zinc Gluconate as the compound, how does the Particle size [2] read?
**A.** Particle size- 177 microns

**Q.** What about the Density [3] of the same compound?
**A.** Density- 0.6(Medium density)
